Measurements taken from ChEMBL document CHEMBL1149934, “(N-acyl-N-alkyl)glycyl borolysine analogs: A new class of potent thrombin inhibitors” (Bioorg Med Chem Lett, 1996).

Columns and labels:
[1] = target: T1, Prothrombin (Homo sapiens, UniProt P00734); test: In vitro for inhibition of thrombin.
[2] = target: Tissue-type plasminogen activator (Homo sapiens, UniProt P00750); test: Compound was tested in vitro for inhibition of tissue plasminogen activator
[3] = target: Plasminogen (Homo sapiens, UniProt P00747); test: In vitro for inhibition of plasmin
Plasminogen, sequence (P00747 97-580 limits assumed): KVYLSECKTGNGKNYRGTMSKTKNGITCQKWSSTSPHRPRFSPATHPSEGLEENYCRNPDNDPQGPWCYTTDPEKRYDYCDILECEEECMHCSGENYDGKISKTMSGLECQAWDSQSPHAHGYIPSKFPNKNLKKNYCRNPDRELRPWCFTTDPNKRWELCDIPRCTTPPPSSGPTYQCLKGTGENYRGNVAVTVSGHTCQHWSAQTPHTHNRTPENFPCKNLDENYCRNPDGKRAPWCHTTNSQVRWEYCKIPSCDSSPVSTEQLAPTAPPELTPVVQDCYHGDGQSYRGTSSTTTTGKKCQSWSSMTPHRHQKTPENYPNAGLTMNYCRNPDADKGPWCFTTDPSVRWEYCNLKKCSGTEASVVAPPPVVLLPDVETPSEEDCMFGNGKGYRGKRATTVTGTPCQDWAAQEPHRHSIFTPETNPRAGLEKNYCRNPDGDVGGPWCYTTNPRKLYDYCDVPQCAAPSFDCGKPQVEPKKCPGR
Plasminogen, sequence (P00747 581-810 limits assumed): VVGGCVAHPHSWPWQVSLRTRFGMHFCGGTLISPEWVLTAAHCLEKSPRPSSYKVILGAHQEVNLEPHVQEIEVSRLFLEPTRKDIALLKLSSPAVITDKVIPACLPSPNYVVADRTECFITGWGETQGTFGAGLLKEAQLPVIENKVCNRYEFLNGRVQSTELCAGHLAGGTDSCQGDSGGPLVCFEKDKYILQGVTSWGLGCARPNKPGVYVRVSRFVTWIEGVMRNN

[4] = target: Serine protease 1 (Homo sapiens, UniProt P07477); test: Compound was tested in vitro for inhibition of trypsin
Serine protease 1, sequence (P07477 whole entry): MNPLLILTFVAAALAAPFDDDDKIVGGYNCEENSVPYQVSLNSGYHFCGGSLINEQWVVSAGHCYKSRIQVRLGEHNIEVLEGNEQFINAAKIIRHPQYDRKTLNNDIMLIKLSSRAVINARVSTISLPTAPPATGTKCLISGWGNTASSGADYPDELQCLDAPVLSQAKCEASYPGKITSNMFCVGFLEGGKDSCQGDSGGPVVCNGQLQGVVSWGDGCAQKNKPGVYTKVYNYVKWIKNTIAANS

[5] = target: T1, Prothrombin; test: Compound was tested in vitro for inhibition of thrombin

Tissue-type plasminogen activator, sequence (P00750 whole entry): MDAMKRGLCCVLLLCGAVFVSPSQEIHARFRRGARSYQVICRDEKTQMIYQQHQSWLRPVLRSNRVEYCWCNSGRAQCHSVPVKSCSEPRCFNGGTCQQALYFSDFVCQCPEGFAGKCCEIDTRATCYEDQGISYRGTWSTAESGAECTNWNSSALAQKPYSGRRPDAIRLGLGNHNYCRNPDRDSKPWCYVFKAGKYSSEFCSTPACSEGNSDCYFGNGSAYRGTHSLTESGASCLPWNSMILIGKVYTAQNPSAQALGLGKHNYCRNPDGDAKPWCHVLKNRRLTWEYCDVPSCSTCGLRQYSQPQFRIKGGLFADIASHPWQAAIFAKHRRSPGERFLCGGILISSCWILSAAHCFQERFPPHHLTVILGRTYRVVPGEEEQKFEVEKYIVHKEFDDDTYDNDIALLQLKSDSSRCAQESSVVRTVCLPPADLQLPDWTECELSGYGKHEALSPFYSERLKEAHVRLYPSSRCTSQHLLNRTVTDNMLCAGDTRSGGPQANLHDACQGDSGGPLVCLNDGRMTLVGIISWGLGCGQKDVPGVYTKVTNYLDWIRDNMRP

Ki [1] [nM]	Ki [2] [nM]	Ki [3] [nM]	Ki [4] [nM]	IC50 [5] [nM]	SMILES
1.71	3800	250	2.8	–	CN(CC(=O)N[C@@H](CCCCN)B(O)O)C(=O)CCc1ccccc1
9.1	7000	> 10000	21	–	CN(CC(=O)N[C@@H](CCC/N=C\N)B(O)O)C(=O)CCc1ccccc1
–	5.7	5.1	0.045	–	CC(=O)N[C@H](Cc1ccccc1)C(=O)N1CCC[C@H]1C(=O)N[C@@H](CCCN=C(N)N)B(O)O
1.4	280	230	–	–	NCCCC[C@H](NC(=O)CN(C(=O)CCc1ccccc1)c1ccccc1)B(O)O
0.16	51	460	0.61	–	CN(CC(=O)N[C@@H](CCCN=C(N)N)B(O)O)C(=O)CCc1ccccc1

The next lines start with the compound.

SMILES	Ki [1] [nM]	Ki [2] [nM]	Ki [3] [nM]	Ki [4] [nM]	IC50 [5] [nM]
NCCCC[C@H](NC(=O)CN(C(=O)CCc1ccccc1)C1CC1)B(O)O	0.69	750	160	1.1	–
CN(CC(=O)N[C@@H](CCCCN)B(O)O)C(=O)CCCc1ccccc1	5.4	–	–	–	–
NCCCC[C@H](NC(=O)CNC(=O)CCc1ccccc1)B(O)O	–	–	–	–	90000
CN=C(N)NCCC[C@H](NC(=O)CN(C)C(=O)CCc1ccccc1)B(O)O	2.1	–	14000	18	–
CN(CC(=O)N[C@@H](CCCCN)B(O)O)C(=O)Cc1ccccc1	16	–	–	–	–
CC(C)N(CC(=O)N[C@@H](CCCCN)B(O)O)C(=O)CCc1ccccc1	1.6	3370	140	3.8	–
NCCCC[C@H](NC(=O)CN(CCc1ccccc1)C(=O)CCc1ccccc1)B(O)O	0.42	680	170	2.5	–
NCCCC[C@H](NC(=O)CN(Cc1ccccc1)C(=O)CCc1ccccc1)B(O)O	4.68	–	–	–	–
NCCCC[C@H](NC(=O)CN(C(=O)CCc1ccccc1)C1CCCCC1)B(O)O	4.9	1100	250	8.4	–
CN(CC(=O)N[C@@H](CCCCN)B(O)O)C(=O)c1ccccc1	123	–	–	–	–
